Data from PubChem BioAssay AID602211 (Sanford-Burnham Center for Chemical Genomics, 2012).
Active and inactive are the calls of the source.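 The calls were made as follows: active = mean IC50 at or below 10 µM; inactive = the rest.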

The molecules below were run on H9c2 cardiomyocytes, H2O2 protection, ATPLite viability, 2 h (assay: protection of H9c2 cardiomyocytes from H2O2 death, dose response, cell-based, ATPLite luminescence, set 2 (AID 602211);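 also: potency is for protection so actives keep ATP signal up against peroxide killing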).
For `COc1ccc(Cl)cc1-c1nc(-c2ccc(NC(=O)c3cccs3)cc2)no1`, the IC50 was > 79 µM (inactive). In the case of `O=C(c1cc(-c2cccnc2)nc2ccc(Br)cc12)N1CCN(c2ncccn2)CC1`, the IC50 is reported as 3.6 µM. `CC(C)(C)OC(=O)CNC(=O)c1[nH]cnc1C(=O)Nc1ccc(CNC(=O)OC(C)(C)C)cc1` showed an IC50 of 2.15 µM. In the case of `C[C@@H]1CN([C@H](C)CO)S(=O)(=O)c2ccc(C#Cc3ccccc3F)cc2O[C@H]1CN(C)C(=O)c1ccc2c(c1)OCO2`, the IC50 is reported as > 79 µM (inactive). `CCOc1ccc(C(C(=O)NCC2CCCO2)N(C(=O)c2snc(C(N)=O)c2N)c2ccccc2F)cc1` (configuration not stated) showed an IC50 of 3.67 µM. For `COc1ccc(OC)c(NC(=O)c2sc3ncnc(N4CCN(c5ccccn5)CC4)c3c2C)c1`, the IC50 was 16.2 µM (inactive). With `COC(=O)c1ccc(C(C(=O)NCc2ccccc2)N(Cc2cccs2)C(=O)c2cnccn2)cc1` (configuration not stated) the IC50 was 5.53 µM. With `CC(=O)c1ccc(-c2cnc3c(NC=O)cc(-c4cccc(C(=O)N(C)C)c4)cn23)cc1` the IC50 was 18.9 µM (inactive). For `O=C(CSc1nnc(Cc2cccs2)n1CCc1ccccc1)N1CCCc2ccccc21`, the IC50 was > 79 µM (inactive). In the case of `Cc1c(C(=O)NCC2COc3ccccc3O2)oc2ccc(S(=O)(=O)N3CCOCC3)cc12` (configuration not stated), the IC50 is reported as > 79 µM (inactive). For `O=C(N/N=C/c1cn(-c2ccccc2)nc1-c1cccnc1)c1ccccc1`, the IC50 was 12.7 µM (inactive). With `CCn1cc(C(=O)Nc2cccc(NC(C)=O)c2)c2cc(OC)c(OC)cc2c1=O` the IC50 was 16.1 µM (inactive). In the case of `CCCc1cc(N2CCN(C(=O)c3ccco3)CC2)n2c(nc3ccccc32)c1C#N`, the IC50 is reported as > 79 µM (inactive). With `CCOC(=O)C1=C(C)Nc2ccccc2N=C1NC(=O)c1oc2ccccc2c1COC` the IC50 was 2.89 µM. `COc1cc(NC(=O)c2cc([N+](=O)[O-])ccc2NC(=O)CN2CCN(c3ccccn3)CC2)cc(OC)c1` was tested, and the IC50 was 2.58 µM. Work on `CC(C)(C)C(=O)Nc1ccc(C(=O)N/N=C/c2ccccc2OC(=O)c2ccccc2)cc1` yielded an IC50 of 6.72 µM. For `COc1cc(/C=C/c2nc(-c3ccccc3O)n[nH]2)cc(OC)c1OC`, the IC50 was > 79 µM (inactive). In the case of `COc1ccc(C(=O)Nc2nc(-c3ccccn3)cs2)cc1S(=O)(=O)N1CCOCC1`, the IC50 is reported as 11.9 µM (inactive). `CCC(Oc1ccccc1)C(=O)Nc1ccccc1C(=O)N1CCCCC1` (configuration not stated) was tested, and the IC50 was 36.2 µM (inactive). For `CC/C(C)=N\N=C\c1c(O)n(CC)c2cc(C3=NNC(=O)CC3)ccc12`, the IC50 was 16.6 µM (inactive). `Cc1ccc(-c2nnc(NCc3nc4ccccc4[nH]3)c3ccccc23)cc1S(=O)(=O)N1CCOCC1` was tested, and the IC50 was 4.11 µM. For `COc1ccc(OC)c(NC(=O)COC(=O)c2c3c(nc4ccccc24)CCCC3)c1`, the IC50 was 1.15 µM. Work on `O=C(/C=C\c1cn(-c2ccccc2)nc1-c1ccc2c(c1)OCCO2)N1CCOCC1` yielded an IC50 of 7.49 µM. In the case of `COc1ccc(CN(C)C(=O)C(Cc2ccccc2)NC(=O)c2ccccc2)cc1F` (configuration not stated), the IC50 is reported as 2.67 µM. In the case of `CCN(C[C@H]1N[C@@](CC)(C(=O)OC)[C@H]2C(=O)N(Cc3ccccc3)C(=O)[C@@H]12)C(=O)c1ccc(C(C)(C)C)cc1`, the IC50 is reported as > 79 µM (inactive). Molecule `CC(C)(C)OC(=O)NCC12C=CC(O1)C1C(=O)N(Cc3ccccc3)C(=O)C12` (configuration not stated) has an IC50 of 2.91 µM. With `COc1ccccc1NC(=O)c1cc(-c2cc(OC)c(OC)c(OC)c2)nc2ccccc12` the IC50 was 2.88 µM. In the case of `COc1cc(-c2cnc3c(NC=O)cc(-c4ccsc4)cn23)cc(OC)c1OC`, the IC50 is reported as > 79 µM (inactive). For `COc1ccc(-c2cc(NC(C)=O)c3ncc(-c4ccc(OC)c(OC)c4)n3c2)cc1OC`, the IC50 was > 79 µM (inactive). `CC(C)(C)NC(=O)c1cccc(NC(=O)c2ccc(NC(=O)c3ccco3)cc2)c1` was tested, and the IC50 was > 79 µM (inactive). For `O=CNc1cc(-c2ccc(C(=O)NC3CC3)cc2)cn2c(-c3ccc(F)c(Cl)c3)cnc12`, the IC50 was 5.46 µM. For `CCOC(=O)C1=C(C)NC(C)=C(C(=O)OCC)C1C(=O)OCC(=O)NC(C)C`, the IC50 was 12.9 µM (inactive). Molecule `O=C(Nc1cccc(NC(=O)c2ccc([N+](=O)[O-])o2)c1)c1ccco1` has an IC50 of 1.58 µM. For `COc1cccc(-c2cnc3c(NC(C)=O)cc(-c4cccc(NS(C)(=O)=O)c4)cn23)c1`, the IC50 was 7.84 µM. With `COc1cccc(-c2cnc3c(NC=O)cc(-c4cc(C)c(O)c(C)c4)cn23)c1` the IC50 was 10.2 µM (inactive). Molecule `O=C(NCc1ccco1)c1cc(-c2cccnc2)nc2ccc(Cl)cc12` has an IC50 of 4.95 µM. `COC(=O)c1cc2c(-c3ccccc3)cc3ccccn3c-2c1C(=O)OC` gave an IC50 of 6.44 µM. For `CCc1nc2ccc(C(=O)Nc3cc(-c4ccccc4)ccc3OC)cn2c1N(C)Cc1nccs1`, the IC50 was 5.95 µM. For `COc1cc(-c2nnc(-c3cc(-c4ccccc4)nc4ccccc34)o2)cc(OC)c1OC`, the IC50 was 4.14 µM. For `COc1ccc(-c2csc(NC(=O)c3ccc(OCC(=O)N4CCOCC4)c(OC)c3)n2)cc1OC`, the IC50 was 2.44 µM. In the case of `C[C@H](NC(=O)c1nc[nH]c1C(=O)NCC(=O)OCc1ccccc1)C(=O)OCc1ccccc1`, the IC50 is reported as 26.2 µM (inactive). Molecule `COc1cccc(Nc2nc(-c3sc(NC(=O)c4ccco4)nc3C)cs2)c1` has an IC50 of 7.15 µM. Molecule `O=C(COC(=O)c1ccccc1C(=O)OCC(=O)NCCc1c[nH]c2ccccc12)NCCc1c[nH]c2ccccc12` has an IC50 of 4.86 µM. With `Cc1nnc2ccc(-c3cccc(NC(=O)c4ccc(Cl)nc4)c3)nn12` the IC50 was 2.62 µM. In the case of `CCOC(=O)c1c2c3c(cccc3n(C)c1=O)C(=O)c1ccccc1-2`, the IC50 is reported as 10.1 µM (inactive). In the case of `CC1(C)Oc2ccc3ccc(=O)oc3c2/C(=C/Nc2ccccn2)C1=O`, the IC50 is reported as > 79 µM (inactive). `CCOC(=O)N1CCc2c(sc(NC(=O)CN3CCOCC3)c2C(=O)Nc2ccccc2)C1` was tested, and the IC50 was 39.9 µM (inactive). With `O=c1cc(-c2cccnc2)oc2c1ccc1ccccc12` the IC50 was 31.2 µM (inactive). In the case of `COc1cc(/C=N/NC(=O)c2cccnc2)ccc1OS(=O)(=O)c1ccc(F)cc1`, the IC50 is reported as 3.17 µM. In the case of `COc1ccc(-c2cc(C(=O)N(C)Cc3ccc(OC)c(OC)c3OC)c3ccccc3n2)cc1OC`, the IC50 is reported as 4.04 µM. `CCOC(=O)C1CCN(c2cc3c(cc2NC(=O)c2ccccc2Cl)n(C)c(=O)n3C)CC1` showed an IC50 of 5.6 µM. With `COc1cc(OC)cc(C(=O)Nc2ccc(-c3nc4ccccc4o3)cc2)c1` the IC50 was > 79 µM (inactive). `COc1ccc(-c2csc(NC(=O)CCCc3nc4ccccc4c(=O)[nH]3)n2)cc1OC` was tested, and the IC50 was 3.42 µM. In the case of `CCCN1C(=O)c2cc(C(=O)Nc3cccc(C(C)=O)c3)ccc2C1Nc1cccc(C(C)=O)c1` (configuration not stated), the IC50 is reported as > 79 µM (inactive). Work on `COc1ccc(CCn2c(=N)c(C(=O)NCC3CCCO3)cc3c(=O)n4cccc(C)c4nc32)cc1OC` (configuration not stated) yielded an IC50 of 2.6 µM. With `COc1cc2c(C#CCCO)c(-c3ccsc3)oc(=O)c2cc1OC` the IC50 was 2.04 µM. `COc1cccc(CN2CCN(C(=O)c3cc(-c4cccnc4)nc4ccc(C)cc34)CC2)c1` was tested, and the IC50 was 22.9 µM (inactive). `COC(=O)c1ccccc1NC(=O)c1nc2nc(C)cc(C)n2n1` was tested, and the IC50 was 31.2 µM (inactive). Molecule `COc1ccc(-c2cc(C(=O)NC(C)c3ccccn3)c3ccccc3n2)cc1OC` (configuration not stated) has an IC50 of 5.39 µM. `COc1ccc(-c2cc3nc(-c4ccccc4)cc(N4CCN(C(C)=O)CC4)n3n2)cc1` was tested, and the IC50 was 8.73 µM. With `CC(=O)Nc1cccc(-c2cc(NC=O)c3ncc(-c4ccc(C(C)=O)cc4)n3c2)c1` the IC50 was 6.5 µM. In the case of `COc1cc2nc(C3CCC3)nc(N3CCN(c4ccccn4)CC3)c2cc1OC`, the IC50 is reported as > 79 µM (inactive). `O=C(N/N=C/c1ccc(-c2cccc([N+](=O)[O-])c2)o1)c1ccc([N+](=O)[O-])cc1` showed an IC50 of 7 µM. `COc1ccc(-c2cc(-c3nnc(COC(=O)c4ccncc4)o3)c3ccccc3n2)cc1OC` showed an IC50 of 5.89 µM. `COc1ccc(-c2nc(NC(=O)c3ccc(OCC(=O)N4CCOCC4)c(OC)c3)sc2C)cc1` was tested, and the IC50 was > 79 µM (inactive). `COc1ccccc1NC(=O)c1cc(-c2ccc(OC)c(OC)c2)nc2ccccc12` showed an IC50 of 4.06 µM. In the case of `COc1cc2c(cc1OC)CN(c1nc(-c3cccnc3)nc3ccccc13)CC2`, the IC50 is reported as 2.93 µM. `COc1ccc(Nc2nnc(SCc3cc(=O)n4ccsc4n3)s2)cc1` was tested, and the IC50 was 8.23 µM. Work on `COc1cc(/C=N/NC(=O)c2ccncc2)ccc1OC(=O)c1ccccc1Cl` yielded an IC50 of 5.67 µM. With `O=C(CNC(=O)c1nc[nH]c1C(=O)NCc1ccccc1)OCc1ccccc1` the IC50 was > 79 µM (inactive). For `C=CCOC(=O)C1=C[C@H](c2cn(C(C)=O)c3ccccc23)C[C@H](OCc2ccc(CO)cc2)O1`, the IC50 was 9.81 µM. In the case of `CC(=O)NCc1ccc(-c2csc(NC(=O)CCc3nc4ccccc4c(=O)[nH]3)n2)s1`, the IC50 is reported as 4.3 µM. With `CSc1nc2ccc(S(=O)(=O)Nc3c(C)n(C)n(-c4ccccc4)c3=O)cc2s1` the IC50 was 3.1 µM. Molecule `CS(=O)(=O)Nc1cccc(NC(=O)c2cccc3c(-c4cccc(C(N)=O)c4)coc23)c1` has an IC50 of 3.61 µM. For `CCCNC(=O)c1c(N)n(-c2cccc(OC)c2)c2nc3ccccc3nc12`, the IC50 was > 79 µM (inactive). With `Cc1ccc2nc(-c3ccccc3)cc(C(=O)NNC(=O)c3csc(N4CCOCC4)n3)c2c1` the IC50 was 15 µM (inactive). In the case of `CC1(C)Cc2c(c(N3CCOCC3)nc3sc4c(NN)ncnc4c23)CS1`, the IC50 is reported as > 79 µM (inactive). `Cc1cc(C)c2c(N)c(C(=O)N/N=C/c3cccnc3)sc2n1` was tested, and the IC50 was 12.1 µM (inactive). In the case of `Cc1nn(-c2ccccc2)c(C)c1/C=N/NC(=O)c1cc(C(C)(C)C)[nH]n1`, the IC50 is reported as 26.5 µM (inactive). In the case of `CCOC(=O)c1c(C)[nH]c(C)c1C(=O)COc1ncnc2cc([N+](=O)[O-])ccc12`, the IC50 is reported as 11.1 µM (inactive). For `O=C(NC1CCCCC1)C(c1ccc2ncccc2c1)N(Cc1cccs1)C(=O)c1cccs1` (configuration not stated), the IC50 was 1.96 µM. Work on `COc1cc(/C=C(\C#N)c2nc3ccc(C)cc3[nH]2)c([N+](=O)[O-])cc1OC` yielded an IC50 of 9.31 µM. `COC(=O)c1ccccc1NC(=O)c1ccc2nccnc2c1` was tested, and the IC50 was 50.6 µM (inactive). `COc1ccc2c(c1OC)c(=O)n1c3ccc(OC(C)C(=O)NCCN4CCOCC4)cc3c3ccnc2c31` (configuration not stated) was tested, and the IC50 was 13.7 µM (inactive). Work on `COc1cccc(/C=N/NC(=O)c2nc(-c3ccccc3)cc(-c3ccccc3)n2)c1` yielded an IC50 of 1.61 µM. `Cc1c(/C=N/NC(=O)c2ccc(O)cc2)c2ccccn2c1C(=O)c1ccc(F)cc1` was tested, and the IC50 was 5.2 µM. For `CC(=O)Nc1ccc(C(=O)N/N=C/c2ccccc2OC(=O)c2ccc(Cl)cc2)cc1`, the IC50 was 13.6 µM (inactive). In the case of `COc1ccc2oc(C(=O)Nc3ccc(N4CCOCC4)cc3)c(C)c2c1`, the IC50 is reported as > 79 µM (inactive). `O=c1c2ccccc2nc(CSc2ncnc3nc[nH]c23)n1-c1ccc(Cl)c(Cl)c1` was tested, and the IC50 was 4.13 µM. `CCCNC(=O)c1ccc(N2CCC3(CC2)CC(c2ccccc2)=NO3)c(NC(=O)c2ccco2)c1` gave an IC50 of 4.21 µM. With `O=C(NCCN1CCOCC1)c1cnn2c(-c3ccccc3)cc(-c3ccccc3)nc12` the IC50 was > 79 µM (inactive). Molecule `COc1ccc(C(C(=O)NCc2ccccc2)N(Cc2ccco2)C(=O)c2snc(C(N)=O)c2N)cc1` (configuration not stated) has an IC50 of 3.63 µM.
